# In patent US20100087516A1, “ANTIBACTERIAL MACROLACTIN A THAT BACILLUS POLYFERMENTICUS KJS-2 PRODUCED IN” (priority 2007, published 2010):
# Where two headings read alike, the source gives them in different places.
# What was measured:
# VRE5 = assay: Bioassay at a gradient of concentration on TSB agar medium; assay type: cell-based, vancomycin-resistant enterococci; settings: 10 μl of solution in 50% acetone
# Burkholderia cepacia = settings: cited from earlier work
# [1] = test system: vancomycin-resistant enterococci (VRE); settings: cited from earlier work
# Saccharomyces cerevisiae = assay: Bioassay of Macrolactin A on TSB agar medium; assay type: cell-based; settings: 10 μl of solution in 50% acetone (2.5 mg/ml)
# Experimental: (§1) The strains used for the experiment were Saccharomyces cerevisiae, Vibrio vulnificus, Micrococcus luteus and Streptococcus parauberis. Each strain, except Vibrio vulnificus, was inoculated and cultured in TSB medium at 200 rpm for 16 hours at 37° C., and then a 0.5 ml (approximately 28*10^9 cfu/ml) aliquot of the culture medium was spread over TSB agar medium. Vibrio vulnificus, was inoculated and cultured in TSB medium at 200 rpm for 16 hours at 25° C., which is its optimum growth conation, and then the amount of the culture medium was spread over the agar medium. The solvent required for the bioassay is a solvent, which can dissolve Macrolactin A, that has no toxicity against the strains used for the experiment.
# Micrococcus luteus = assay: Bioassay of Macrolactin A on TSB agar medium; assay type: cell-based; settings: 10 μl of solution in 50% acetone (2.5 mg/ml)
# Experimental: as §1
# Vibrio vulnificus = assay: Bioassay of Macrolactin A on TSB agar medium; assay type: cell-based; settings: 10 μl of solution in 50% acetone (2.5 mg/ml)
# Experimental: as §1
# Streptococcus parauberis = assay: Bioassay of Macrolactin A on TSB agar medium; assay type: cell-based; settings: 10 μl of solution in 50% acetone (2.5 mg/ml)
# Experimental: as §1
# Heat and pH stability = assay type: physicochemical
# Herpes simplex = settings: cited from earlier work
# [2] = test system: biosynthesis of cholesterol; settings: cited from earlier work
# [3] = test system: a variety of microorganisms and fungi; assay: Spectrum of antibiotic activity (general statement); assay type: cell-based
# Bacillus subtilis 168 = assay: Antibiotic activity test of HPLC fractions of the culture medium; assay type: cell-based
# Experimental: (§2) In order to purify the antibiotic substance produced by strain Bacillus polyfermenticus KJS-2, the seed culture of the strain was diluted into 3 L of TSB medium (TSB agar: Tryptone 17 g, Soytone 3 g, Dextrose 2.5 g, NaCl 5 g, Dipotassium Phosphate 2.5 g, pH 6.8 to 72 to a final concentration of 4% and was cultured for 2.5 days (30° C., 200 rpm, 1 vvm, pH6.8). The culture medium was extracted with […] and analyzed by HPLC under the conditions using a solvent of Step 2 of Example 1, and each peak was fractionated as in FIG. 4. Each fraction was tested for antibiotic activity against Escherichia coli, Bacillus subtilis 168 and Vancomycin-resistant Enterococci. […] FIG. 5 below is the analysis of fraction 1 of FIG. 4 by LC/Mass under the same conditions of Step 2 of Example 1, and the purification was to a purity of 94.63%.
# [4] = test system: Vancomycin-resistant Enterococci; assay: as above; assay type: cell-based
# Experimental: as §2
# Escherichia coli = assay: as above; assay type: cell-based
# Experimental: as §2
# [5] = test system: Vancomycin-resistant enterococci; assay: Inhibitory effect on VRE in liquid medium; assay type: cell-based; settings: for average absorbance (OD), Macrolactin A addition group: Average of 11 VRE strains
# Experimental: For the experiment with VRE, the strains were inoculated into a liquid medium upto a concentration of 1,000,000 cfu/mL and cultured either with (for strains to be tested) or without (for controls) Macrolactin A. […] […] After 4 hours of culture, the average absorbance of the control group was 0.76, while that of the group cultured with Macrolactin A was 0.19, showing significant difference between the two groups.
compound,measurement,setting,value
CC1CCC/C=C/C=C/C(O)CC(O)C/C=C\C=C\C(O)C/C=C/C=C\C(=O)O1 (stereo not shown) [Macrolactin A],concentration of solution that inhibits VRE5 on TSB agar medium,VRE5,above 1.25 mg/ml
same,antibiotic activity against Burkholderia cepacia,Burkholderia cepacia,antibiotic activity only against MRSA
same,antibiotic activity against VRE,[1],antibiotic activity only against MRSA
same,antibiotic activity against Saccharomyces cerevisiae,Saccharomyces cerevisiae,excellent antibiotic activity
same,antibiotic activity against Micrococcus luteus,Micrococcus luteus,excellent antibiotic activity
same,antibiotic activity against Vibrio vulnificus,Vibrio vulnificus,excellent antibiotic activity
same,antibiotic activity against Streptococcus parauberis,Streptococcus parauberis,excellent antibiotic activity
same,heat stability,Heat and pH stability,excellent heat stability
same,stability in weak acidic and neutral environments,Heat and pH stability; weak acidic and neutral environments,very stable
same,antiviral activity against Herpes simplex,Herpes simplex,antiviral activity
same,inhibitory effect on the biosynthesis of cholesterol,[2],inhibitory effect
same,spectrum of antibiotic activity,[3],broad spectrum of antibiotic activity
same,antibiotic activity against Bacillus subtilis 168,Bacillus subtilis 168,excellent antibiotic activity
same,antibiotic activity against Bacillus subtilis 168,Bacillus subtilis 168; listed as fraction 1,had antibiotic activity
same,antibiotic activity against Vancomycin-resistant Enterococci,[4],showed antibiotic activity
same,antibiotic activity against Escherichia coli,Escherichia coli,excellent antibiotic activity
same,antibiotic activity against Escherichia coli,Escherichia coli; listed as fraction 1,had antibiotic activity
same,"average absorbance (OD), Macrolactin A addition group","[5]; culture 4 hours, 50 μg/mL",0.19 OD
same,"average absorbance (OD), Macrolactin A addition group","[5]; culture 6 hours, 50 μg/mL",0.26 OD
same,"OD, Macrolactin A addition group","[5]; VRE1, culture 4 hours, 50 μg/mL",0.216 OD
same,"OD, Macrolactin A addition group","[5]; VRE1, culture 6 hours, 50 μg/mL",0.207 OD
same,"OD, Macrolactin A addition group","[5]; VRE2, culture 4 hours, 50 μg/mL",0.279 OD
same,"OD, Macrolactin A addition group","[5]; VRE2, culture 6 hours, 50 μg/mL",0.391 OD
same,"OD, Macrolactin A addition group","[5]; VRE3, culture 4 hours, 50 μg/mL",0.240 OD
same,"OD, Macrolactin A addition group","[5]; VRE3, culture 6 hours, 50 μg/mL",0.314 OD
same,"OD, Macrolactin A addition group","[5]; VRE4, culture 4 hours, 50 μg/mL",0.166 OD
same,"OD, Macrolactin A addition group","[5]; VRE4, culture 6 hours, 50 μg/mL",0.180 OD
same,"OD, Macrolactin A addition group","[5]; VRE5, culture 4 hours, 50 μg/mL",0.176 OD
same,"OD, Macrolactin A addition group","[5]; VRE5, culture 6 hours, 50 μg/mL",0.153 OD
same,"OD, Macrolactin A addition group","[5]; VRE6, culture 4 hours, 50 μg/mL",0.171 OD
same,"OD, Macrolactin A addition group","[5]; VRE6, culture 6 hours, 50 μg/mL",0.179 OD
same,"OD, Macrolactin A addition group","[5]; VRE7, culture 4 hours, 50 μg/mL",0.173 OD
same,"OD, Macrolactin A addition group","[5]; VRE7, culture 6 hours, 50 μg/mL",0.133 OD
same,"OD, Macrolactin A addition group","[5]; VRE8, culture 4 hours, 50 μg/mL",0.228 OD
same,"OD, Macrolactin A addition group","[5]; VRE8, culture 6 hours, 50 μg/mL",0.589 OD
same,growth of VRE8 and VRE11 in liquid medium,"[5]; VRE8 and VRE11, 50 μg/mL, lower sensitivity than the other strains",notable growth retardation
same,"OD, Macrolactin A addition group","[5]; VRE11, culture 4 hours, 50 μg/mL",0.236 OD
same,"OD, Macrolactin A addition group","[5]; VRE11, culture 6 hours, 50 μg/mL",0.507 OD
same,"OD, Macrolactin A addition group","[5]; VRE14, culture 4 hours, 50 μg/mL",0.078 OD
same,"OD, Macrolactin A addition group","[5]; VRE14, culture 6 hours, 50 μg/mL",0.050 OD
same,"OD, Macrolactin A addition group","[5]; VRE15, culture 4 hours, 50 μg/mL",0.145 OD
same,"OD, Macrolactin A addition group","[5]; VRE15, culture 6 hours, 50 μg/mL",0.131 OD
same,growth of VRE strains in liquid medium,"[5]; nine out of eleven strains tested, 50 μg/mL",remarkable growth inhibition
